Patent US5179088A, “1-Carba(dethia)cephalosporin antibiotics” (Eli Lilly and Company, priority 1990, dated 1993)

Legend:
Format in all cases: cell-based
Parameters in all cases: unit not given here
Staphylococcus Aureus = assay: in vitro antibacterial activity, agar dilution (Staphylococcus aureus)
Procedure: (§1) *minimum inhibitory concentrations were determined by the Agardilution

Staphylococcus Epi = assay: in vitro antibacterial activity, agar dilution (Staphylococcus epi)
Procedure: as §1

Streptococcus A = assay: in vitro antibacterial activity, agar dilution (Streptococcus A)
Procedure: as §1

Streptococcus pn = assay: in vitro antibacterial activity, agar dilution (Streptococcus pn); details: strain PARK
Procedure: as §1

Streptococcus D = assay: in vitro antibacterial activity, agar dilution (Streptococcus D)
Procedure: as §1

H. Influ. = assay: in vitro antibacterial activity, agar dilution (H. influ.)
Procedure: as §1

E. coli = assay: in vitro antibacterial activity, agar dilution (E. coli)
Procedure: as §1

Klebsiella = assay: in vitro antibacterial activity, agar dilution (Klebsiella)
Procedure: as §1

Enterbacter Aerogenes = assay: in vitro antibacterial activity, agar dilution (Enterobacter aerogenes)
Procedure: as §1

Enterbacter Cloacea = assay: in vitro antibacterial activity, agar dilution (Enterobacter cloacae)
Procedure: as §1

Salmonella = assay: in vitro antibacterial activity, agar dilution (Salmonella)
Procedure: as §1

Pseudomonas = assay: in vitro antibacterial activity, agar dilution (Pseudomonas)
Procedure: as §1

Serratia = assay: in vitro antibacterial activity, agar dilution (Serratia)
Procedure: as §1

Shig. sonn = assay: in vitro antibacterial activity, agar dilution (Shig. sonn)
Procedure: as §1

Proteus morg = assay: in vitro antibacterial activity, agar dilution (Proteus morg)
Procedure: as §1

Proteus incon = assay: in vitro antibacterial activity, agar dilution (Proteus incon)
Procedure: as §1

Proteus rett = assay: in vitro antibacterial activity, agar dilution (Proteus rett)
Procedure: as §1

Citro = assay: in vitro antibacterial activity, agar dilution (Citro)
Procedure: as §1

Acin = assay: in vitro antibacterial activity, agar dilution (Acin)
Procedure: as §1

Compound: CO/N=C(\C(=O)N[C@@H]1C(=O)N2C(C(=O)O)=C(c3csc(-c4ccco4)n3)CC[C@H]12)c1csc(N)n1 [Example 32]
- minimum inhibitory concentration (Staphylococcus Aureus; strain S13E): 128
- minimum inhibitory concentration (Staphylococcus Aureus; strain S13E, retest): 128
- minimum inhibitory concentration (Staphylococcus Aureus; strain V41): 8
- minimum inhibitory concentration (Staphylococcus Aureus; strain V41, retest): 4
- minimum inhibitory concentration (Staphylococcus Aureus; strain X1.1): 4
- minimum inhibitory concentration (Staphylococcus Aureus; strain X1.1, retest): 2
- minimum inhibitory concentration (Staphylococcus Aureus; strain X400): > 128
- minimum inhibitory concentration (Staphylococcus Aureus; strain X400, retest): > 128
- minimum inhibitory concentration (Staphylococcus Epi; strain 222): 4
- minimum inhibitory concentration (Staphylococcus Epi; strain 222, retest): 4
- minimum inhibitory concentration (Staphylococcus Epi; strain 270): 16
- minimum inhibitory concentration (Staphylococcus Epi; strain 270, retest): 8
- minimum inhibitory concentration (Streptococcus A; strain C203): .015
- minimum inhibitory concentration (Streptococcus A; strain C203, retest): .015
- minimum inhibitory concentration (Streptococcus pn): .03
- minimum inhibitory concentration (Streptococcus pn; retest): .03
- minimum inhibitory concentration (Streptococcus D; strain 2041): 16
- minimum inhibitory concentration (Streptococcus D; strain 2041, retest): 16
- minimum inhibitory concentration (Streptococcus D; strain X66): > 128
- minimum inhibitory concentration (Streptococcus D; strain X66, retest): > 128
- minimum inhibitory concentration (H. Influ.; res, strain 76): < .008
- minimum inhibitory concentration (H. Influ.; res, strain 76, retest): .015
- minimum inhibitory concentration (H. Influ.; sens, strain C.L.): .06
- minimum inhibitory concentration (H. Influ.; sens, strain C.L., retest): .03
- minimum inhibitory concentration (E. coli; strain EC14): 1
- minimum inhibitory concentration (E. coli; strain EC14, retest): .5
- minimum inhibitory concentration (E. coli; strain N10): 1
- minimum inhibitory concentration (E. coli; strain N10, retest): 1
- minimum inhibitory concentration (E. coli; strain TEM): < .008
- minimum inhibitory concentration (E. coli; strain TEM, retest): .5
- minimum inhibitory concentration (Klebsiella; strain KAE): 1
- minimum inhibitory concentration (Klebsiella; strain KAE, retest): 16
- minimum inhibitory concentration (Klebsiella; strain X26): 8
- minimum inhibitory concentration (Klebsiella; strain X26, retest): < .008
- minimum inhibitory concentration (Klebsiella; strain X68): 1
- minimum inhibitory concentration (Klebsiella; strain X68, retest): 1
- minimum inhibitory concentration (Enterbacter Aerogenes; strain C32): 1
- minimum inhibitory concentration (Enterbacter Aerogenes; strain C32, retest): .5
- minimum inhibitory concentration (Enterbacter Aerogenes; strain EB17): 1
- minimum inhibitory concentration (Enterbacter Aerogenes; strain EB17, retest): 1
- minimum inhibitory concentration (Enterbacter Cloacea; strain 265A): 128
- minimum inhibitory concentration (Enterbacter Cloacea; strain 265A, retest): 128
- minimum inhibitory concentration (Enterbacter Cloacea; strain EB5): 2
- minimum inhibitory concentration (Enterbacter Cloacea; strain EB5, retest): 2
- minimum inhibitory concentration (Salmonella; strain 1335): 4
- minimum inhibitory concentration (Salmonella; strain 1335, retest): 2
- minimum inhibitory concentration (Salmonella; strain X514): 1
- minimum inhibitory concentration (Salmonella; strain X514, retest): 1
- minimum inhibitory concentration (Pseudomonas; strain PS18): > 128
- minimum inhibitory concentration (Pseudomonas; strain PS18, retest): > 128
- minimum inhibitory concentration (Pseudomonas; strain PS72): > 128
- minimum inhibitory concentration (Pseudomonas; strain PS72, retest): > 128
- minimum inhibitory concentration (Pseudomonas; strain X239): > 128
- minimum inhibitory concentration (Pseudomonas; strain X239, retest): > 128
- minimum inhibitory concentration (Pseudomonas; strain X528): > 128
- minimum inhibitory concentration (Pseudomonas; strain X528, retest): > 128
- minimum inhibitory concentration (Serratia; strain SE3): 16
- minimum inhibitory concentration (Serratia; strain SE3, retest): 16
- minimum inhibitory concentration (Serratia; strain X99): 14
- minimum inhibitory concentration (Serratia; strain X99, retest): 2
- minimum inhibitory concentration (Shig. sonn; strain N9): 1
- minimum inhibitory concentration (Shig. sonn; strain N9, retest): 1
- minimum inhibitory concentration (Proteus morg; strain PR15): 2
- minimum inhibitory concentration (Proteus morg; strain PR15, retest): 2
- minimum inhibitory concentration (Proteus incon; strain PR33): .5
- minimum inhibitory concentration (Proteus incon; strain PR33, retest): .25
- minimum inhibitory concentration (Proteus rett; strain C24): .5
- minimum inhibitory concentration (Proteus rett; strain C24, retest): .5
- minimum inhibitory concentration (Citro; strain CF17): .5
- minimum inhibitory concentration (Citro; strain CF17, retest): 1
- minimum inhibitory concentration (Acin; strain AC12): 128
- minimum inhibitory concentration (Acin; strain AC12, retest): 128

Compound: CO/N=C(\C(=O)N[C@@H]1C(=O)N2C(C(=O)O)=C(c3csc(-c4ncc([N+](=O)[O-])s4)n3)CC[C@H]12)c1csc(N)n1 [Example 36]
- minimum inhibitory concentration (Staphylococcus Aureus; strain S13E): 32
- minimum inhibitory concentration (Staphylococcus Aureus; strain V41): 2
- minimum inhibitory concentration (Staphylococcus Aureus; strain X1.1): .25
- minimum inhibitory concentration (Staphylococcus Aureus; strain X400): 16
- minimum inhibitory concentration (Staphylococcus Epi; strain 222): 2
- minimum inhibitory concentration (Staphylococcus Epi; strain 270): 1
- minimum inhibitory concentration (Streptococcus A; strain C203): .015
- minimum inhibitory concentration (Streptococcus pn): < .008
- minimum inhibitory concentration (Streptococcus D; strain 2041): 4
- minimum inhibitory concentration (Streptococcus D; strain X66): 64
- minimum inhibitory concentration (H. Influ.; res, strain 76): < .008
- minimum inhibitory concentration (H. Influ.; sens, strain C.L.): .015
- minimum inhibitory concentration (E. coli; strain N10): .25
- minimum inhibitory concentration (E. coli; strain TEM): .25
- minimum inhibitory concentration (Klebsiella; strain KAE): .5
- minimum inhibitory concentration (Klebsiella; strain X26): < .008
- minimum inhibitory concentration (Klebsiella; strain X68): .25
- minimum inhibitory concentration (Enterbacter Aerogenes; strain C32): .125
- minimum inhibitory concentration (Enterbacter Aerogenes; strain EB17): .25
- minimum inhibitory concentration (Enterbacter Cloacea; strain 265A): .5
- minimum inhibitory concentration (Enterbacter Cloacea; strain EB5): 1
- minimum inhibitory concentration (Salmonella; strain 1335): .5
- minimum inhibitory concentration (Salmonella; strain X514): .25
- minimum inhibitory concentration (Pseudomonas; strain PS18): > 128
- minimum inhibitory concentration (Pseudomonas; strain PS72): > 128
- minimum inhibitory concentration (Pseudomonas; strain X239): 32
- minimum inhibitory concentration (Pseudomonas; strain X528): 32
- minimum inhibitory concentration (Serratia; strain SE3): 4
- minimum inhibitory concentration (Serratia; strain X99): 1
- minimum inhibitory concentration (Shig. sonn; strain N9): .25
- minimum inhibitory concentration (Proteus morg; strain PR15): .25
- minimum inhibitory concentration (Proteus incon; strain PR33): .25
- minimum inhibitory concentration (Proteus rett; strain C24): .06
- minimum inhibitory concentration (Citro; strain CF17): .06
- minimum inhibitory concentration (Acin; strain AC12): 32
